Source: patent publication US20100144712A1 (priority 2007, published 2010)
Converted amounts (≈) assume the structure as drawn.

What was measured:
Type in all cases: cell-based
[1] = tested on: Candida albican ATCC 64550; assay: In vitro antifungal activity (MIC80), Candida albican ATCC 64550; details: Candida, ATCC64550; Table 2, 64550; read-out: Minimal inhibitory concentration (MIC80)
Protocol: (§1) In vitro antifungal activities of the inventive antifungal compounds were evaluated using test strains including Candida albican (ATCC 90873, 204276, 62342, 64124, 64550, 96901, MYA-573, MYA-574, MYA-575, MYA-576, MYA-1003) and Aspergillus fumigatus (ATCC 16424). Test samples and positive control samples were prepared by dissolving the inventive compounds and comparative compounds, i.e., amphotericin B, fluconazole and itraconazole, in DMSO, respectively, and each successively diluted with medium to obtain test and positive control solutions having test compound concentrations of 0.125 μg/ml to a maximum concentration not generating turbidity. Minimal inhibitory concentration (MIC80) of each compound was determined as the lowest concentration of the test compounds required to reduce growth by 80% relative to a control strain not treated.
(§2) 1) Test strain: Candida albican ATCC 90873, 204276, 62342, 64124, 64550, 96901, MYA-573, MYA-574, MYA-575, MYA-576, MYA-1003, and Aspergillus fumigatus ATCC 16424 were commercially obtained from The American Type Culture Collection (ATCC) and subcultured in CHEMON Co. Ltd. (amphotericin B was commercially purchased from Sigma, and fluconazole and itraconazole were prepared according to methods described in British Patent No. 2,099,818; and U.S. Pat. No. 4,267,179, respectively).
(§3) 2) Medium and culture condition: Candida albican was cultured in Sabourad Dextrose Agar, YM Agar or Potato Dextrose Agar according to ATCC information at a temperature of 37° C., 35° C., 30° C. or 25° C. Aspergillus fumigatus was cultured in Malt Extract Agar or Potato Dextrose Agar at a temperature ranging from 24 to 27° C.
(§4) 3) Preparation of test samples: the inventive compounds and comparative compounds were each diluted with DMSO to obtain 1 to 2 ml of a test sample in a concentration of 100-folds of the determining maximum concentration (256 μg/ml).
(§5) The test samples were each successively diluted with RPMI 1640 to obtain test solutions having concentrations of […] in a 12×75 mm sterilized disposable culture tube. The final concentration of DMSO was adjusted to […] (v/v).
(§6) 5) Preparation of strain solution and inoculation
(§7) Candida albican strains were each subcultured in Sabourad Dextrose Agar, YM Agar or Potato Dextrose Agar medium at 35° C. for 2˜3 days. In the case of yeasts, a single colony was taken from prominent colonies and suspended in 0.85% sterile physiological saline solution and the turbidity of the suspension was adjusted to 80˜82% at 530 nm, and then diluted 50-fold with RPMI 1640 medium to 1.0×10^3˜5.0×10^3 CFU/ml. The turbidity of fungi was adjusted to 80˜82% and the suspension was diluted 50-fold to […]. Aspergillus fumigatus strains were subcultured in Malt Extract Agar for 7˜10 days, and a single colony was taken from prominent colonies and suspended in 0.85% sterile physiological saline solution and the suspension was adjusted to 0.108 at 530 nm, and then diluted 1000-fold with RPMI 1640 medium to 0.4×10^2˜5×10^4 CFU/ml. The turbidity of fungi was adjusted to 80˜82% and the suspension was diluted 50-fold to 0.4102˜0.5104 CFU/ml.
(§8) The strain solutions thus obtained were each seeded into a sterilized 96-well microplate, 0.1 ml of each test solution were added thereto, and […] of alamarblue was treated to each well (Biosource, #DAL1100). This procedure was repeated 2 times.
(§9) Minimal inhibitory concentration (MIC80) of each compound was determined as the lowest concentration of the test compounds required to reduce growth by 80% relative to a control strain not treated.

[2] = tested on: Candida albican ATCC MYA-576; assay: In vitro antifungal activity (MIC80), Candida albican ATCC MYA-576; details: Candida; Table 2, MYA 576; read-out: Minimal inhibitory concentration (MIC80)
Protocol: as §1, §2, §3, §4, §5, §6, §7, §8, §9

[3] = tested on: Candida albican ATCC 96901; assay: In vitro antifungal activity (MIC80), Candida albican ATCC 96901; details: Candida, ATCC96901; Table 2, ATCC 96901; read-out: Minimal inhibitory concentration (MIC80)
Protocol: as §1, §2, §3, §4, §5, §6, §7, §8, §9

[4] = tested on: Candida albican ATCC MYA-574; assay: In vitro antifungal activity (MIC80), Candida albican ATCC MYA-574; details: Candida; Table 2, MYA 574; read-out: Minimal inhibitory concentration (MIC80)
Protocol: as §1, §2, §3, §4, §5, §6, §7, §8, §9

[5] = tested on: Candida albican ATCC MYA-573; assay: In vitro antifungal activity (MIC80), Candida albican ATCC MYA-573; details: Candida; Table 2, MYA 573; read-out: Minimal inhibitory concentration (MIC80)
Protocol: as §1, §2, §3, §4, §5, §6, §7, §8, §9

[6] = tested on: Candida albican ATCC 90873; assay: In vitro antifungal activity (MIC80), Candida albican ATCC 90873; details: Candida, ATCC90873; Table 2, ATCC 90873; read-out: Minimal inhibitory concentration (MIC80)
Protocol: as §1, §2, §3, §4, §5, §6, §7, §8, §9

[7] = tested on: Candida albican ATCC MYA-1003; assay: In vitro antifungal activity (MIC80), Candida albican ATCC MYA-1003; details: Candida; Table 2, MYA 1003; read-out: Minimal inhibitory concentration (MIC80)
Protocol: as §1, §2, §3, §4, §5, §6, §7, §8, §9

[8] = tested on: Candida albican ATCC 62342; assay: In vitro antifungal activity (MIC80), Candida albican ATCC 62342; details: Candida, ATCC62342; Table 2, 62342; read-out: Minimal inhibitory concentration (MIC80)
Protocol: as §1, §2, §3, §4, §5, §6, §7, §8, §9

[9] = tested on: Candida albican ATCC MYA-575; assay: In vitro antifungal activity (MIC80), Candida albican ATCC MYA-575; details: Candida; Table 2, MYA 575; read-out: Minimal inhibitory concentration (MIC80)
Protocol: as §1, §2, §3, §4, §5, §6, §7, §8, §9

[10] = tested on: Candida albican ATCC 64124; assay: In vitro antifungal activity (MIC80), Candida albican ATCC 64124; details: Candida, ATCC64124; Table 2, 64124; read-out: Minimal inhibitory concentration (MIC80)
Protocol: as §1, §2, §3, §4, §5, §6, §7, §8, §9

| MIC80 [1] [µg/mL] | MIC80 [2] [µg/mL] | MIC80 [3] [µg/mL] | MIC80 [4] [µg/mL] | MIC80 [5] [µg/mL] | MIC80 [6] [µg/mL] | MIC80 [7] [µg/mL] | MIC80 [8] [µg/mL] | MIC80 [9] [µg/mL] | MIC80 [10] [µg/mL] | SMILES |
| --- | --- | --- | --- | --- | --- | --- | --- | --- | --- | --- |
| 1 (≈ 1.92 µM) | 0.25 (≈ 0.48 µM) | 2 (≈ 3.84 µM) | 1 (≈ 1.92 µM) | 0.5 (≈ 0.96 µM) | 0.125 (≈ 0.24 µM) | > 128 | 1 (≈ 1.92 µM) | 0.25 (≈ 0.48 µM) | 8 (≈ 15.4 µM) | C[C@@H](N1CCN(c2cccc(OCc3ccccc3)n2)CC1)[C@](O)(Cn1cncn1)c1ccc(F)cc1F [Example 20, (2R,3R)-3-(4-(6-(benzyloxy)pyridin-2-yl)piperazin-1-yl)-2-(2,4-difluorophenyl)-1-(1H-1,2,4-triazol-1-yl)butan-2-ol] |
| 4 (≈ 7.22 µM) | 0.5 (≈ 0.903 µM) | > 128 | 2 (≈ 3.61 µM) | 1 (≈ 1.81 µM) | 0.125 (≈ 0.226 µM) | > 128 | 1 (≈ 1.81 µM) | 0.5 (≈ 0.903 µM) | 32 (≈ 57.8 µM) | CC(N1CCN(c2ccc(N(C)CCc3cccs3)nc2)CC1)C(O)(Cn1cncn1)c1ccc(F)cc1F (stereo not drawn) [Example 37] |
| > 128 | 0.5 (≈ 1.03 µM) | > 128 | > 128 | > 128 | 0.25 (≈ 0.514 µM) | > 128 | > 128 | 0.5 (≈ 1.03 µM) | > 128 | CCCCOc1cccc(N2CCN([C@H](C)[C@](O)(Cn3cncn3)c3ccc(F)cc3F)CC2)n1 [Example 23, (2R,3R)-3-(4-(6-(butyloxy)pyridin-2-yl)piperazin-1-yl)-2-(2,4-difluorophenyl)-1-(1H-1,2,4-triazol-1-yl)butan-2-ol] |
| 4 (≈ 9.34 µM) | 0.125 (≈ 0.292 µM) | 64 (≈ 149 µM) | 4 (≈ 9.34 µM) | 1 (≈ 2.33 µM) | 0.125 (≈ 0.292 µM) | 128 (≈ 299 µM) | 0.5 (≈ 1.17 µM) | 0.5 (≈ 1.17 µM) | 64 (≈ 149 µM) | C[C@@H](N1CCN(Cc2ccncc2)CC1)[C@](O)(Cn1cncn1)c1ccc(F)cc1F [Example 42, (2R,3R)-2-(2,4-difluorophenyl)-3-(4-((pyridin-4-yl)methyl)piperazin-1-yl)-1-(1H-1,2,4-triazol-1-yl)butan-2-ol] |
| 4 (≈ 8.46 µM) | 0.125 (≈ 0.265 µM) | 64 (≈ 135 µM) | 4 (≈ 8.46 µM) | 2 (≈ 4.23 µM) | 0.125 (≈ 0.265 µM) | > 128 | 2 (≈ 4.23 µM) | 0.125 (≈ 0.265 µM) | 64 (≈ 135 µM) | CC(C)Oc1ccc(N2CCN([C@H](C)[C@](O)(Cn3cncn3)c3ccc(F)cc3F)CC2)cn1 [Example 33, (2R,3R)-2-(2,4-difluorophenyl)-3-(4-(6-(isopropyloxy)pyridin-3-yl)piperazin-1-yl)-1-(1H-1,2,4-triazol-1-yl)butan-2-ol] |
| 8 (≈ 14.7 µM) | 0.5 (≈ 0.92 µM) | > 128 | 16 (≈ 29.4 µM) | 8 (≈ 14.7 µM) | 0.25 (≈ 0.46 µM) | > 128 | 4 (≈ 7.36 µM) | 0.5 (≈ 0.92 µM) | > 128 | C[C@@H](N1CCN(c2cccc(OCCN3CCOCC3)n2)CC1)[C@](O)(Cn1cncn1)c1ccc(F)cc1F [Example 26, (2R,3R)-2-(2,4-difluorophenyl)-3-(4-(6-(2-morpholinoethoxy)pyridin-2-yl)piperazin-1-yl)-1-(1H-1,2,4-triazol-1-yl)butan-2-ol] |
| 2 (≈ 4.27 µM) | 0.125 (≈ 0.267 µM) | 16 (≈ 34.2 µM) | 1 (≈ 2.13 µM) | 0.5 (≈ 1.07 µM) | 0.125 (≈ 0.267 µM) | > 128 | 0.25 (≈ 0.534 µM) | 0.125 (≈ 0.267 µM) | 8 (≈ 17.1 µM) | C[C@@H](N1CCCN(c2nc3ccccc3o2)CC1)[C@](O)(Cn1cncn1)c1ccc(F)cc1F [Example 15, (2R,3R)-3-(4-(benzooxazol-2-yl)-1,4-diazepan-1-yl)-2-(2,4-difluorophenyl)-1-(1H-1,2,4-triazol-1-yl)butan-2-ol] |
| 1 (≈ 2.06 µM) | 0.125 (≈ 0.258 µM) | 32 (≈ 66 µM) | 4 (≈ 8.26 µM) | 1 (≈ 2.06 µM) | 0.125 (≈ 0.258 µM) | > 128 | 1 (≈ 2.06 µM) | 0.125 (≈ 0.258 µM) | 32 (≈ 66 µM) | C[C@@H](N1CCN(c2ccc(OCC3CC3)nc2)CC1)[C@](O)(Cn1cncn1)c1ccc(F)cc1F [Example 30, (2R,3R)-3-(4-(6-(cyclopropylmethoxy)pyridin-3-yl)piperazin-1-yl)-2-(2,4-difluorophenyl)-1-(1H-1,2,4-triazol-1-yl)butan-2-ol] |
| > 128 | 1 (≈ 1.81 µM) | > 128 | > 128 | > 128 | 0.25 (≈ 0.452 µM) | > 128 | > 128 | 1 (≈ 1.81 µM) | > 128 | C[C@@H](N1CCN(c2cccc(N(C)CCc3cccs3)n2)CC1)[C@](O)(Cn1cncn1)c1ccc(F)cc1F [Example 28, (2R,3R)-2-(2,4-difluorophenyl)-3-(4-(6-(methyl(2-(thiophen-2-yl)ethyl)amino)pyridin-2-yl)piperazin-1-yl)-1-(1H-1,2,4-triazol-1-yl)butan-2-ol] |
| 1 (≈ 1.92 µM) | 0.125 (≈ 0.24 µM) | > 128 | 1 (≈ 1.92 µM) | 1 (≈ 1.92 µM) | 0.125 (≈ 0.24 µM) | > 128 | 0.5 (≈ 0.96 µM) | 0.25 (≈ 0.48 µM) | 4 (≈ 7.68 µM) | C[C@@H](N1CCN(c2ccc(OCc3ccccc3)nc2)CC1)[C@](O)(Cn1cncn1)c1ccc(F)cc1F [Example 29, (2R,3R)-3-(4-(6-(benzyloxy)pyridin-3-yl)piperazin-1-yl)-2-(2,4-difluorophenyl)-1-(1H-1,2,4-triazol-1-yl)butan-2-ol] |
| 2 (≈ 3.68 µM) | 0.125 (≈ 0.23 µM) | 32 (≈ 58.9 µM) | 2 (≈ 3.68 µM) | 2 (≈ 3.68 µM) | 0.125 (≈ 0.23 µM) | 128 (≈ 235 µM) | 0.5 (≈ 0.92 µM) | 0.125 (≈ 0.23 µM) | 32 (≈ 58.9 µM) | C[C@@H](N1CCN(c2ccc(OCCN3CCOCC3)nc2)CC1)[C@](O)(Cn1cncn1)c1ccc(F)cc1F [Example 34, (2R,3R)-2-(2,4-difluorophenyl)-3-(4-(6-(2-morpholinoethoxy)pyridin-3-yl)piperazin-1-yl)-1-(1H-1,2,4-triazol-1-yl)butan-2-ol] |
| 0.5 (≈ 0.903 µM) | 0.125 (≈ 0.226 µM) | 4 (≈ 7.22 µM) | 0.5 (≈ 0.903 µM) | 0.5 (≈ 0.903 µM) | 0.125 (≈ 0.226 µM) | > 128 | 0.125 (≈ 0.226 µM) | 0.125 (≈ 0.226 µM) | 4 (≈ 7.22 µM) | C[C@@H](N1CCN(c2nc3ccc(N4CCCCC4)cc3s2)CC1)[C@](O)(Cn1cncn1)c1ccc(F)cc1F [Example 10, (2R,3R)-2-(2,4-difluorophenyl)-3-(4-(6-(piperidin-1-yl)benzothiazol-2-yl)piperazin-1-yl)-1-(1H-1,2,4-triazol-1-yl)butan-2-ol] |
